Reference: PubChem BioAssay AID1963837 (Molecular Pharmacology Branch, DTP, NCI, 2024)
Values joined by “and” are separate entries in the source; they are usually repeats but may differ in a detail not shown here. Equal entries are not always repeated.

System: 843126-344-R-J1-PDC complex spheroid viability
Assay: Anticancer human tumor 843126-344-R-J1-PDC patient-derived melanoma cell line growth inhibition [POLQ]
Conditions: for viability, T/C: stronger effect = lower value
Method: Multicellular complex tumor spheroid response to Polymerase (POL) inhibitors (novobiocin, ART-558, RP6685) in combination with a variety of drugs and investigational agents in selected tumor cell lines
The POL inhibitors (novobiocin, ART-558, and RP6685) were evaluated both individually and in combination with standard of care and investigational anticancer small molecules within a complex spheroid model of solid tumors. . Complex spheroids include a stromal component modeled by human endothelial cells (HUVEC) and fibroblasts modeled by human mesenchymal stem cells (MSCs). The concentration ranges selected for each drug and investigational agent were based upon clinically achievable concentrations if the clinical Cmax of the agent was known.
Compounds. The drugs and investigational agents: novobiocin (NSC847541), ART-558 (NSC835418), RP-6685 (NSC848927), peposertib (NSC802822), ceralasertib (NSC780249), elimusertib (NSC800525), camonsertib (NSC841442), AZD-1390 (NSC803789), olaparib (NSC753686), talazoparib (NSC767125), rucaparib (NSC756644), sotorasib (NSC818433), MRTX-1133 (NSC836407), SN-38 (NSC673596), topotecan (NSC609699), epotoside (NSC141540), doxorubicin (NSC123127), gemcitabine (NSC613327), 5-fluorouracil (NSC19893), paclitaxel (NSC125973), vemurafenib (NSC761431), MSA-2 (NSC828583), SN-011 (NSC837082), adavosertib (NSC754352), prexasertib (NSC758257), carboplatin (NSC241240) and oxaliplatin (NSC266046), were obtained from the National Cancer Institute (NCI) Developmental Therapeutics Program Chemical Repository (21). The FDA-approved anticancer drug set is available from the Developmental Therapeutics Program at https://dtp.cancer.gov/organization/dscb/obtaining/. […] The stock solutions were prepared in dimethyl sulfoxide (DMSO, Sigma-Aldrich, St. Louis, MO, cat. D2650), except for the platinum compounds which were prepared in saline (Quality Biological, Gaithersburg, MD, cat. 114-055-101), at 800-fold the tested concentration and stored at -70 degrees C prior to their use. All drugs and investigational agents were tested over a range starting from a high concentration at or near the clinical Cmax and decreasing in half-log increments. If the clinical Cmax for an agent had not been determined, the highest concentration tested was 10 microM, except for SN-38, which was tested at a high concentration of 1 microM.
Cell Culture. All cells were maintained in an incubator at 37 degrees C and 5% CO2 with 95% humidity. The PDC lines were cultured according to standard operating procedures established by the NCI PDMR (https://pdmr.cancer.gov). Table 3 of the manuscript, lists the cell lines along with the number of the three cell types plated to form the mct-spheroids and media for tumor cell growth. After thawing, all PDC lines, except 997537-175-T-J1-PDC and 415267-285-R-J2-PDC, were cultured in Matrigel-coated flasks prepared with a working solution of 1X Ham's F-12 nutrient mix, without supplementation (Thermo Fisher Scientific, cat. 11765054), 100 U/mL penicillin-streptomycin (Thermo Fisher Scientific, cat. 15140122), and 2.5% Matrigel (Corning Inc., Corning, NY, cat. 354248) for the first three passages. The two PDC lines 997537-175-T-J1-PDC and 415267-285-R-J2-PDC were cultured on uncoated flasks. The 857933-349-R-J2-PDC line was cultured in 6C/Colon 1B media containing advanced DMEM/F-12 (Thermo Fisher Scientific, cat. 12634028), 10 mM HEPES (Thermo Fisher Scientific, cat. 15630080), 1X GlutaMAX supplement (Thermo Fisher Scientific, cat. 35050061), 0.1 mg/mL primocin (InvivoGen, San Diego, CA, cat. ant-pm-2), 10% defined fetal bovine serum, heat inactivated (HyClone Laboratories Inc., Logan, UT, cat. SH30070.03HI), 50% L-WRN conditioned media (ATCC, cat. CRL-3276), 1.25 mM N-Acetyl-L-cysteine (Sigma-Aldrich, cat. A9165), 10 mM nicotinamide (Sigma-Aldrich, cat. N0636), 1X B-27 supplement (Thermo Fisher Scientific, cat. 17504044), 1X N-2 supplement (Thermo Fisher Scientific, cat. […]

[1] = curve of first compound, second compound 0.0316 µM
[2] = curve of first compound, second compound 0.1 µM
[3] = curve of first compound, second compound 0.316 µM
[4] = curve of first compound, second compound 1 µM
[5] = curve of first compound, second compound 3.16 µM
[6] = curve of first compound, second compound 10 µM
[7] = second compound 0.0316 µM, first compound 0.0316 µM
[8] = second compound 0.0316 µM, first compound 0.1 µM
[9] = second compound 0.0316 µM, first compound 0.316 µM
[10] = second compound 0.0316 µM, first compound 1 µM
[11] = second compound 0.0316 µM, first compound 3.16 µM
[12] = second compound 0.0316 µM, first compound 10 µM
[13] = second compound 0.1 µM, first compound 0.0316 µM
[14] = second compound 0.1 µM, first compound 0.1 µM
[15] = second compound 0.1 µM, first compound 0.316 µM
[16] = second compound 0.1 µM, first compound 1 µM
[17] = second compound 0.1 µM, first compound 3.16 µM
[18] = second compound 0.1 µM, first compound 10 µM
[19] = second compound 0.316 µM, first compound 0.0316 µM
[20] = second compound 0.316 µM, first compound 0.1 µM
[21] = second compound 0.316 µM, first compound 0.316 µM
[22] = second compound 0.316 µM, first compound 1 µM
[23] = second compound 0.316 µM, first compound 3.16 µM
[24] = second compound 0.316 µM, first compound 10 µM
[25] = second compound 1 µM, first compound 0.0316 µM
[26] = second compound 1 µM, first compound 0.1 µM
[27] = second compound 1 µM, first compound 0.316 µM
[28] = second compound 1 µM, first compound 1 µM
[29] = second compound 1 µM, first compound 3.16 µM
[30] = second compound 1 µM, first compound 10 µM
[31] = second compound 3.16 µM, first compound 0.0316 µM
[32] = second compound 3.16 µM, first compound 0.1 µM
[33] = second compound 3.16 µM, first compound 0.316 µM
[34] = second compound 3.16 µM, first compound 1 µM
[35] = second compound 3.16 µM, first compound 3.16 µM
[36] = second compound 3.16 µM, first compound 10 µM
[37] = second compound 10 µM, first compound 0.0316 µM
[38] = second compound 10 µM, first compound 0.1 µM
[39] = second compound 10 µM, first compound 0.316 µM
[40] = second compound 10 µM, first compound 1 µM
[41] = second compound 10 µM, first compound 3.16 µM
[42] = second compound 10 µM, first compound 10 µM
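Wherever viability, T/C is given: spheroids exposed to drugs for seven days before readout.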

COc1cc(C2c3cc4c(cc3C(OC3OC5COC(C)OC5C(O)C3O)C3COC(=O)C23)OCO4)cc(OC)c1O (stereo unspecified) + Nc1ccc(C#CCN(C(=O)Cc2ncc(C(F)(F)F)cc2C(F)(F)F)c2ccc(F)cc2)nn1
IC50 [1]: > 10000 nM | IC50 [2]: > 10000 nM | IC50 [3]: > 10000 nM | IC50 [4]: > 10000 nM | IC50 [5]: 7600 nM | IC50 [6]: 6290 nM | viability, T/C [7]: 82.4% | viability, T/C [8]: 78.3% | viability, T/C [9]: 94% | viability, T/C [10]: 89.7% | viability, T/C [11]: 58.3% | viability, T/C [12]: 49.5% | viability, T/C [13]: 97.1% | viability, T/C [14]: 77.8% | viability, T/C [15]: 92% | viability, T/C [16]: 94.3% | viability, T/C [17]: 73.4% | viability, T/C [18]: 51.4% | viability, T/C [19]: 91.8% | viability, T/C [20]: 104% | viability, T/C [21]: 99.1% | viability, T/C [22]: 78.9% | viability, T/C [23]: 70.1% | viability, T/C [24]: 49.5% | viability, T/C [25]: 96.1% | viability, T/C [26]: 83.6% | viability, T/C [27]: 80.5% | viability, T/C [28]: 71.6% | viability, T/C [29]: 64.3% | viability, T/C [30]: 53.5% | viability, T/C [31]: 88.3% | viability, T/C [32]: 77% | viability, T/C [33]: 89.9% | viability, T/C [34]: 75.2% | viability, T/C [35]: 68.6% | viability, T/C [36]: 44.3% | viability, T/C [37]: 81.8% | viability, T/C [38]: 96.5% | viability, T/C [39]: 78.5% | viability, T/C [40]: 75.4% | viability, T/C [41]: 61.7% | viability, T/C [42]: 42.3%

CC1COCCN1c1cc(C2(O)CC3CCC(C2)O3)c2cnn(-c3ccn[nH]3)c2n1 (stereo unspecified) + Cc1cccc(N(C)C(=O)C2C(O)CCN2c2nc(C)cc(C(F)(F)F)c2C#N)c1
IC50 [1]: 487 nM | IC50 [2]: 470 nM | IC50 [3]: 580 nM | IC50 [4]: 385 nM | IC50 [5]: 640 nM | IC50 [6]: 763 nM | viability, T/C [7]: 95.7% | viability, T/C [8]: 78.6% | viability, T/C [9]: 48.2% | viability, T/C [10]: 44.8% | viability, T/C [11]: 31% | viability, T/C [12]: 20.7% | viability, T/C [13]: 84.6% | viability, T/C [14]: 66% | viability, T/C [15]: 58.5% | viability, T/C [16]: 40.1% | viability, T/C [17]: 28.5% | viability, T/C [18]: 22.2% | viability, T/C [19]: 85.6% | viability, T/C [20]: 74.9% | viability, T/C [21]: 51.3% | viability, T/C [22]: 45.2% | viability, T/C [23]: 34% | viability, T/C [24]: 19.2% | viability, T/C [25]: 99.3% | viability, T/C [26]: 62.8% | viability, T/C [27]: 56.9% | viability, T/C [28]: 40.8% | viability, T/C [29]: 32.7% | viability, T/C [30]: 21% | viability, T/C [31]: 91.2% | viability, T/C [32]: 80.5% | viability, T/C [33]: 51.5% | viability, T/C [34]: 47.5% | viability, T/C [35]: 33.2% | viability, T/C [36]: 20.6% | viability, T/C [37]: 87.7% | viability, T/C [38]: 82.8% | viability, T/C [39]: 63.8% | viability, T/C [40]: 45.2% | viability, T/C [41]: 29.3% | viability, T/C [42]: 17.7%

CCCS(=O)(=O)Nc1ccc(F)c(C(=O)c2c[nH]c3ncc(-c4ccc(Cl)cc4)cc23)c1F
viability, T/C (compound 0.0316 µM): 101% and 86.2% | viability, T/C (compound 0.1 µM): 91.1% and 76% | viability, T/C (compound 0.316 µM): 87.4% and 96% | viability, T/C (compound 1 µM): 85.6% and 76.9% | viability, T/C (compound 3.16 µM): 72.9% and 74.4% | viability, T/C (compound 10 µM): 91.5% and 59.1% | IC50 (curve of compound): > 10000 nM
